{"source": "patent US9895363B2", "about": "“Methods for modulating function of proliferating cell nuclear antigen (PCNA) and treating cancer with PCNA-targeting compounds” (University of Cincinnati, priority 2010, dated 2018)", "key": {"[1]": {"tested_on": "Lung Endothelial Cells (immortal) (Mu-Lu-Endo)", "test": "Growth inhibition, mouse lung endothelial cells", "type": "cell-based", "conditions": "for IC50: Endothelial cell", "protocol": "Growth inhibitory effects of PCNA-I1 and PCNA-I2 were assessed in human cancer cell lines, mouse cancer cell lines, immortalized mouse cell lines, and human primary cell lines. Specifically, growth inhibitory effects of PCNA-I1 and PCNA-I2 were assessed using MTT staining in the following cells lines: 1) human cancer cell lines including LNCaP (androgen receptor […]), 22Rv1, DU-145, LAPC-4, and PC-3 (androgen receptor […]) prostate cancer cells; MCF-7 and T47D breast cancer cells; A375 and MDA-MB435 melanoma cells; 2) mouse cancer cell lines including TRAMP-C2RE3 prostate cancer cells, B16 and K1735 melanoma cells, UV2237 fibrosarcoma cells, and CT-26 colon cancer cells; 3) immortalized mouse lung cell lines and mouse endothelial cell lines; and 4) primary human cell lines including umbilical endothelial cells (HUVEC, PromoCell, Heidelberg, Germany), primary bone marrow mesenchymal stem cells (HuMSC, PromoCell), primary human mammary epithelial cells (HuBrEC, Lonza, Walkersville, Md.), primary human prostate epithelial cells (HuPrEC, Lonza), and primary mouse spleen lymphocytes (isolated in this laboratory), and primary mouse bone marrow stromal cells (isolated in this laboratory). PCNA-I1 and PCNA-I2 were either provided by the University of Cincinnati Drug Discovery Center (UC-DDC, Cincinnati, Ohio) or were purchased from Chembridge Co (San Diego, Calif.), ChemDiv (San Diego, Calif.), and/or Sigma-Aldrich (St Louis, Mo.).\nGrowth inhibitory effects of the compounds were assessed by MTT staining as described previously by Dong et al. in In Vitro Model for Intrinsic Drug Resistance: Effects of Protein Kinase C Activators on the Chemosensitivity of Cultured Human Colon Cancer Cells; Mol. Pharmacol. 1991; 39: 563-9. […]\nIC50 values were derived from growth inhibition curves. […] Inhibition of cell growth was calculated using the formula: growth inhibition (%)=(1−A570 of treated/A570 of control)×100. […] The fluorescence intensity was measured at 530/580 (excitation/emission) in the FLUOstar Omega microplate reader (BMG LABTECH, Cary, N.C.). […]"}, "[2]": {"molecular_target": "T1, PCNA (Homo sapiens, UniProt P12004)", "T1 construct": "endogenous PCNA was knocked down with transfection of PCNA-specific siRNA; endogenous in cells; host or cells: PC-3", "T1 sequence (P12004 whole entry)": "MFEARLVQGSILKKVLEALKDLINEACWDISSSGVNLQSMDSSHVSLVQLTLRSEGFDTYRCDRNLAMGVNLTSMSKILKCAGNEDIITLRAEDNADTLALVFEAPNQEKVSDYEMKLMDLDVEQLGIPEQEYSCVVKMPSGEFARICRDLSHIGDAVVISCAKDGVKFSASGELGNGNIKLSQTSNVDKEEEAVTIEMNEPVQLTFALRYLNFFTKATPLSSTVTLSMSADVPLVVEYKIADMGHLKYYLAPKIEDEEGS", "test": "PCNA trimer formation assay, PC-3 cell lysate", "type": "biochemical", "conditions": "PC-3 lysate, 1 μM or 10 μM, 3 H, SDS-PAGE; FIG. 9(A)", "protocol": "The effect of PCNA-I1, PCNA-I2, PCNA-I3, PCNA-I4, PCNA-I6, PCNA-I7, PCNA-I8, PCNA-I9, and PCNA-I10 on PCNA trimer formation was investigated by SDS-PAGE and immunoblotting. Specifically, a trimer formation assay was performed on both PC-3 cell lysates and purified recombinant protein. The trimer formation assay was performed on purified recombinant protein to determine whether the effects of PCNA compounds on the stable trimer formation required the participation of other cellular proteins.\nPurified His-PCNA (0.1 μg/reaction) and PC-3 cell lysates (50 μg/reaction) were incubated for 3 H at room temperature in a reaction buffer (40 mM Tris-HCl, pH 7.5, 0.2 mg/mL BSA, 10 mM MgCl2, and 10% glycerol) in the absence or presence of DMSO (0.1% vehicle control) or PCNA-I1, PCNA-I2, PCNA-I3, PCNA-I4, PCNA-I6, PCNA-I7, PCNA-I8, PCNA-I9, or PCNA-I10 (1 μM or 10 μM). The reaction was stopped by addition of the SDS-PAGE sample buffer without a reducing agent. The samples were resolved in SDS-PAGE without boiling and analyzed by immunoblotting using PCNA antibody."}}, "note": "Where two headings read alike, the source gives them in different places."}
{"smiles": "Cc1ccsc1C(=O)N/N=C/c1ccc2ccccc2c1O", "note": "[PCNA-I1]", "values": [{"measurement": "IC50", "setting": "[1]; Mouse, Blood Vessel, normal cells, read-out: IC50 Values, Lung Endothelial Cells (immortal)", "value": 1.16, "unit": "µM"}, {"measurement": "Growth stimulation, Mu-Lu-Endo", "setting": "[1]; FIG. 2(C)", "value": "Moderate growth stimulation"}, {"measurement": "IC50", "setting": "[1]; Mus musculus, FIG. 2(C), read-out: IC50, Mu-Lu-Endo", "value": 1.16, "unit": "µM"}, {"measurement": "Portion of PCNA in the trimer form", "setting": "[2]", "value": "significantly elevated"}]}
